Strand notation (5' to 3'): a small letter for the sugar, then the base; units joined by * are phosphorothioate-linked, units joined directly phosphodiester-linked; [ ] holds rarer units or linkages, { } end groups; capitals alone tell only the bases. k = constrained ethyl (cEt); [5mC] = 5-methylcytosine; d = 2'-deoxy (DNA)
Tested on: Yap1 mRNA
Assay: Dose-dependent inhibition of human Yap1 in A-431 cells (Example 8, 10,000 cells per well, RTS4814)
Format: cell-based
Conditions: free uptake, approximately 48 hours, RTS4814; for Yap1 mRNA, % UTC: A-431 cells, 10,000 cells per well; for IC50: A-431 cells, linear regression on log/linear plot
Description: Modified oligonucleotides described in the studies above were tested at various doses in A-431 cells. Cultured A-431 cells at a density of 10,000 cells per well were treated using free uptake with modified oligonucleotides diluted to concentrations described in the tables below. After approximately 48 hours, Yap1 mRNA levels were measured as previously described using the Human Yap1 primer-probe set RTS4814. Yap1 mRNA levels were normalized to total RNA content, as measured by RIBOGREEN®. Results are presented in the tables below as percent control of the amount of Yap1 mRNA relative to untreated control cells (% UTC). IC50s were calculated using a linear regression on a log/linear plot of the data in excel.

Substance	Yap1 mRNA, % UTC (31.3 nM) [% UTC]	Yap1 mRNA, % UTC (125.0 nM) [% UTC]	Yap1 mRNA, % UTC (500.0 nM) [% UTC]	Yap1 mRNA, % UTC (2000.00 nM) [% UTC]	IC50 [nM]
1076416 (kA*k[5mC]*k[5mC]*dG*dA*dA*dA*dT*dG*dA*dT*dA*d[5mC]*kT*kG*kA; antisense) [compound 1076416]	67	33	13	7	100
1074566 (DNA CACTGAATTCCAATCG; 3-10-3 cEt gapmer, chemistry not fully specified) [compound 1074566]	41	12	5	3	< 20
1076552 (kA*kT*kG*dT*dA*dT*dA*dA*dA*dT*dA*d[5mC]*d[5mC]*kA*kG*kG; antisense) [compound 1076552]	73	40	17	12	100
1076489 (k[5mC]*kA*kA*dA*dA*dT*dA*dG*dG*dT*dG*dA*dG*kT*k[5mC]*kA; antisense) [compound 1076489]	43	13	4	3	< 20
1075712 (kG*kA*k[5mC]*dG*d[5mC]*dG*dA*dA*dA*dT*dA*d[5mC]*dT*kT*kA*k[5mC]; antisense) [compound 1075712]	69	38	13	7	100
1074594 (DNA kT*kA*kG*dG*dA*dG*d[5mC]*dA*dA*dG*dT*d[5mC]*dT*kT*kG*kT) [compound 1074594]	53	23	10	5	< 20
1074251 (antisense kT*k[5mC]*kT*dG*dA*dT*d[5mC]*dG*dA*dT*dG*dT*dG*kA*kT*kT) [compound 1074251]	73	33	16	10	100
1076523 (kA*kT*kT*dT*dA*dT*dA*dT*d[5mC]*dA*dG*dG*dT*k[5mC]*kA*kA; antisense) [compound 1076523]	67	38	18	7	100
1074411 (kT*kG*kT*dG*dA*dA*dA*dG*dA*dG*dG*dT*d[5mC]*kA*kG*k[5mC]; antisense) [compound 1074411]	47	20	8	6	< 20
1076299 (k[5mC]*kG*kT*dT*dA*dT*dA*dA*dA*dG*dA*d[5mC]*d[5mC]*k[5mC]*kA*kA; antisense) [compound 1076299]	68	38	13	5	100
1076064 (kT*kA*kT*dG*dA*dA*d[5mC]*dA*dA*dT*dG*dT*dA*k[5mC]*kT*k[5mC]; antisense) [compound 1076064]	68	26	10	5	100
1075401 (antisense k[5mC]*kG*kA*dT*dT*dA*dA*dA*dA*d[5mC]*dA*d[5mC]*dT*kG*kG*kT) [compound 1075401]	62	26	11	7	40
1076459 (k[5mC]*kT*kT*d[5mC]*dA*dA*d[5mC]*dA*dA*dG*dA*d[5mC]*dA*kG*kG*kT; antisense) [compound 1076459]	67	32	13	7	100
1075138 (kA*kA*kT*dA*dA*dT*dA*dG*dA*dT*dA*d[5mC]*dT*kG*k[5mC]*k[5mC]; antisense) [compound 1075138]	66	27	8	5	50
1074794 (k[5mC]*kA*kA*dA*dT*d[5mC]*dA*dA*dT*dG*dT*dG*d[5mC]*kT*k[5mC]*k[5mC]; antisense) [compound 1074794]	56	23	10	6	< 20
1074627 (DNA k[5mC]*k[5mC]*kT*dG*dT*dT*dA*dT*dG*dA*dA*d[5mC]*d[5mC]*k[5mC]*kT*kT; antisense) [compound 1074627]	17	5	3	3	< 20
1075686 (kG*kT*kA*dA*dT*dT*dA*d[5mC]*dA*dG*dT*dG*dT*k[5mC]*kT*k[5mC]; antisense) [compound 1075686]	72	44	18	14	100
1076386 (antisense kA*kG*kT*dT*dA*dT*dA*dA*d[5mC]*dA*dG*dT*dG*kT*kA*kA) [compound 1076386]	61	30	11	5	40
1075207 (k[5mC]*kT*kA*dT*dT*dA*dA*dA*dT*dG*dA*dG*d[5mC]*kA*k[5mC]*k[5mC]; antisense) [compound 1075207]	82	51	17	7	100
1074626 (DNA k[5mC]*kT*kG*dT*dT*dA*dT*dG*dA*dA*d[5mC]*d[5mC]*d[5mC]*kT*kT*kG) [compound 1074626]	54	18	8	5	< 20
1075813 (kA*k[5mC]*kT*dA*dA*dT*dA*dT*dG*d[5mC]*dA*dA*d[5mC]*kT*k[5mC]*kT; antisense) [compound 1075813]	57	31	11	5	40
1074792 (kA*kT*k[5mC]*dA*dA*dT*dG*dT*dG*d[5mC]*dT*d[5mC]*d[5mC]*kA*kT*k[5mC]; antisense) [compound 1074792]	48	17	7	5	< 20
1075842 (kG*kT*kA*dT*dT*dT*dA*dG*dG*dT*dA*d[5mC]*dT*k[5mC]*kA*kG; antisense) [compound 1075842]	27	7	3	3	< 20
1076330 (antisense kG*kA*kA*dT*dT*dA*dT*dA*d[5mC]*dT*dG*dG*d[5mC]*kT*kA*k[5mC]) [compound 1076330]	57	31	9	4	40
1074753 (kT*kA*k[5mC]*dA*dT*dT*dA*dG*dG*dA*dA*d[5mC]*dA*kA*kG*kG; antisense) [compound 1074753]	42	10	6	4	< 20
1074762 (kG*k[5mC]*kT*dA*d[5mC]*d[5mC]*d[5mC]*dA*dA*dT*dA*d[5mC]*dA*kA*k[5mC]*k[5mC]; antisense) [compound 1074762]	74	32	14	8	100
1074245 (antisense kA*kG*kA*dA*dG*dT*dA*dT*d[5mC]*dT*d[5mC]*dT*dG*kA*k[5mC]*k[5mC]) [compound 1074245]	47	21	8	5	< 20
1074274 (antisense kG*kT*kT*d[5mC]*dT*dT*dA*dT*dG*dG*dT*dT*dT*kA*kT*kA) [compound 1074274]	42	14	7	5	< 20
1075968 (kT*kA*kT*dT*dT*dA*dA*dG*d[5mC]*d[5mC]*dA*dA*dA*k[5mC]*k[5mC]*kG; antisense) [compound 1075968]	74	37	11	5	100

From patent US11214803B2, “Modulators of YAP1 expression” (Ionis Pharmaceuticals, Inc., priority 2019, dated 2022)
